Assay results published in ChEMBL document CHEMBL6078714, “Discovery of N-Trifluoromethylated Noscapines as Novel and Potent Agents for the Treatment of Glioblastoma” (J Med Chem, 2025).
Calls of active or inactive are those of the source. No cut-off for these calls is given here.

Legend:
[1] = Stability of compound in sodium phosphate buffer at pH 7.4 measured after 48 hrs by 1H NMR analysis; type: physicochemical; conditions: pH 7.4, 48 h
[2] = Stability of compound in sodium carbonate buffer at pH 10 measured after 48 hrs by 1H NMR analysis; type: physicochemical; conditions: pH 10, 48 h
U-118-MG [3] = experiment: Antiproliferative activity against human U-118-MG cells assessed as inhibition of cell proliferation incubated for 72 hrs by CCK8 assay; type: functional, cell-based
U-118-MG [4] = experiment: Antiproliferative activity against human U-118- MG cells assessed as inhibition of cell proliferation at 10 uM by crystal violet staining based analysis; type: functional
U-118-MG [5] = experiment: Antiproliferative activity against human U-118- MG cells assessed as inhibition of cell proliferation by crystal violet staining based analysis; type: functional; conditions: dose 10-40 µM
U-118-MG [6] = experiment: Induction of apoptosis in human U-118-MG cells incubated for 24 hrs by Annexin V-FITC/PI staining based flow cytometric analysis; type: functional, cell-based; conditions: dose 3-40 µM
U-118-MG [7] = experiment: Induction of apoptosis in human U-118-MG cells assessed as apoptotic rate at 20 uM incubated for 24 hrs by Annexin V-FITC/PI staining based flow cytometric analysis relative to control; type: functional
U-118-MG [8] = experiment: Induction of apoptosis in human U-118-MG cells assessed as downregulation of Bcl-XL expression level at 1 to 40 uM incubated for 24 hrs by Western blot analysis; type: functional, cell-based; conditions: dose 1-40 µM
U-118-MG [9] = experiment: Inhibition of cell migration in human U-118-MG cells incubated for 24 hrs by transwell assay; type: functional, cell-based; conditions: dose 0.1-10 µM
U-118-MG [10] = experiment: Inhibition of cell migration in human U-118-MG cells assessed as decrease in number of migrating cells at 0.1 uM incubated for 24 hrs by transwell assay; type: functional, cell-based
U-118-MG [11] = experiment: Cell cycle arrest in human U-118-MG cells assessed as accumulation of cells at G2 phase at 3 uM incubated for 24 hrs by flow cytometric analysis (reference value: 30.6 %); type: functional
U-118-MG [12] = experiment: Cell cycle arrest in human U-118-MG cells assessed as accumulation of cells at S phase at 10 uM incubated for 24 hrs by flow cytometric analysis (reference value: 10.7 %); type: functional
U-118-MG [13] = experiment: Cell cycle arrest in human U-118-MG cells assessed as accumulation of cells at S phase at 20 uM incubated for 24 hrs by flow cytometric analysis (reference value: 10.7 %); type: functional
U-118-MG [14] = experiment: Cell cycle arrest in human U-118-MG cells assessed as accumulation of cells at G2 phase at 20 uM incubated for 24 hrs by flow cytometric analysis (reference value: 30.6 %); type: functional
U-118-MG [15] = experiment: Cell cycle arrest in human U-118-MG cells assessed as accumulation of cells at G1 phase at 30 uM incubated for 24 hrs by flow cytometric analysis (reference value: 56.2 %); type: functional
U-118-MG [16] = experiment: Cell cycle arrest in human U-118-MG cells assessed as accumulation of cells at S phase at 30 uM incubated for 24 hrs by flow cytometric analysis (reference value: 10.7 %); type: functional
U-118-MG [17] = experiment: Cell cycle arrest in human U-118-MG cells assessed as accumulation of cells at G2 phase at 30 uM incubated for 24 hrs by flow cytometric analysis (reference value: 30.6 %); type: functional
Tubulin (Homo sapiens) = Tubulin (Homo sapiens) (UniProt P68371+Q9H4B7+P0DPH7+P68366+Q13509+Q71U36+P04350+Q3ZCM7+P07437+P68363+Q9BQE3+Q6PEY2+Q13885+Q9BVA1+Q9BUF5); experiment: Disruption of tubulin polymerization in human U-118-MG cells at 3 to 20 uM by DAPI staining based immunofluorescence analysis; type: cell-based; conditions: dose 3-20 µM
[18] = Observed clearance in Sprague-Dawley rat at 5 mg/kg, ip; type: ADME, organism-based; conditions: in vivo
[19] = Observed volume of distribution in Sprague-Dawley rat at 5 mg/kg, ip; type: ADME, organism-based; conditions: in vivo
[20] = Half-life in Sprague-Dawley rat at 5 mg/kg, ip; type: ADME, organism-based; conditions: in vivo
[21] = Cmax in Sprague-Dawley rat at 5 mg/kg, ip; type: ADME, organism-based; conditions: in vivo
[22] = AUC (0 to 24 hrs) in Sprague-Dawley rat at 5 mg/kg, ip; type: ADME, organism-based; conditions: in vivo
[23] = Bioavailability in Sprague-Dawley rat at 5 mg/kg, ip; type: ADME, organism-based; conditions: in vivo
[24] = Drug distribution in Sprague-Dawley rat plasma at 5 mg/kg, ip measured after 0.5 hrs; type: ADME, organism-based
[25] = Drug distribution in Sprague-Dawley rat brain at 5 mg/kg, ip measured after 0.5 hrs; type: ADME, organism-based; conditions: read-out: Ct
[26] = Drug distribution in Sprague-Dawley rat plasma at 5 mg/kg, ip measured after 4 hrs; type: ADME, organism-based
[27] = Ratio of drug concentration in Sprague-Dawley rat brain to plasma at 5 mg/kg, ip measured after 4 hrs; type: ADME, organism-based; conditions: read-out: BPR
U-118-MG [28] = experiment: Antitumor activity against human U-118-MG cells xenografted in male BALB/c nude mouse assessed as suppression of tumor growth at 2.5 to 10 mg/kg, ip administered daily for 4 weeks; type: functional, organism-based; conditions: dose 2.5-10 mg/kg
U-118-MG [29] = experiment: Antitumor activity against human U-118-MG cells xenografted in male BALB/c nude mouse assessed as tumor growth inhibition at 2.5 mg/kg, ip administered daily for 4 weeks relative to control; type: functional; conditions: 672 h, read-out: TGI
U-118-MG [30] = experiment: Antitumor activity against human U-118-MG cells xenografted in male BALB/c nude mouse assessed as tumor growth inhibition at 5 mg/kg, ip administered daily for 4 weeks relative to control; type: functional; conditions: 672 h, read-out: TGI
U-118-MG [31] = experiment: Antitumor activity against human U-118-MG cells xenografted in male BALB/c nude mouse assessed as tumor growth inhibition at 10 mg/kg, ip administered daily for 4 weeks relative to control; type: functional; conditions: 672 h, read-out: TGI
[32] = Toxicity in male BALB/c nude mouse xenografted with human U-118-MG cells assessed as effect on serum ALT level at 2.5 to 10 mg/kg, ip administered daily for 4 weeks; type: organism-based; conditions: in vivo, 672 h, dose 2.5-10 mg/kg
[33] = Toxicity in male BALB/c nude mouse xenografted with human U-118-MG cells assessed as effect on serum creatinine level at 2.5 to 10 mg/kg, ip administered daily for 4 weeks; type: organism-based; conditions: in vivo, 672 h, dose 2.5-10 mg/kg
[34] = Toxicity in male BALB/c nude mouse xenografted with human U-118-MG cells assessed as metastasis in liver at 2.5 to 10 mg/kg, ip administered daily for 4 weeks by H and E staining based analysis; type: organism-based; conditions: in vivo, 672 h, dose 2.5-10 mg/kg
[35] = Toxicity in male BALB/c nude mouse xenografted with human U-118-MG cells assessed as metastasis in spleen at 2.5 to 10 mg/kg, ip administered daily for 4 weeks by H and E staining based analysis; type: organism-based; conditions: in vivo, 672 h, dose 2.5-10 mg/kg
[36] = Toxicity in male BALB/c nude mouse xenografted with human U-118-MG cells assessed as metastasis in lung at 2.5 to 10 mg/kg, ip administered daily for 4 weeks by H and E staining based analysis; type: organism-based; conditions: in vivo, 672 h, dose 2.5-10 mg/kg
[37] = Toxicity in male BALB/c nude mouse xenografted with human U-118-MG cells assessed as metastasis in kidney at 2.5 to 10 mg/kg, ip administered daily for 4 weeks by H and E staining based analysis; type: organism-based; conditions: in vivo, 672 h, dose 2.5-10 mg/kg

With `COc1ccc2c(c1OC)C(=O)O[C@@H]2[C@H]1c2c(c(Br)c3c(c2OC)OCO3)CCN1C(F)(F)F` the Stability [1] was “Stable”, the Stability [2] was “Stable” and the IC50 (U-118-MG [3]) was 1.55 µM. For the same compound, the Activity (U-118-MG [4]) was “Active”, the Activity (U-118-MG [5]) was “Dose-dependent-effect” and the Activity (U-118-MG [6]) was “Dose-dependent-effect”. For the same compound, the Activity (U-118-MG [7]) was 23.7%, the Activity (U-118-MG [8]) was “Active” and the inhibition (U-118-MG [9]) was “Dose-dependent-effect”. The inhibition (U-118-MG [10]) was “Active”, the Activity (U-118-MG [11]) was 31.7% and the Activity (U-118-MG [12]) was 9.24%. The Activity (U-118-MG [13]) was 9.68%, the Activity (U-118-MG [14]) was 40% and the Activity (U-118-MG [15]) was 29.5%. The Activity (U-118-MG [16]) was 14.8%, the Activity (U-118-MG [17]) was 52.2% and the Activity (Tubulin (Homo sapiens)) was “Active”. For the same compound, the CL [18] was 135 mL/min/kg, the Vd [19] was 65.2 L/kg and the half-life [20] was 5.64 h. For the same compound, the Cmax [21] was 152 ng/mL, the AUC [22] was 661 ng·h/mL and the bioavailability [23] was 61.3%. It also gave a concentration at 0.5 h [24] of 99.6 ng/mL, a concentration at 0.5 h [25] of 35.4 ng/g and a concentration at 4 h [26] of 69.4 ng/mL. The Kp at 4 h [27] was 0.517, the Activity (U-118-MG [28]) was “Active” and the inhibition in vivo at 2.5 mg/kg (U-118-MG [29]) was 34.4%. For the same compound, the inhibition in vivo at 5 mg/kg (U-118-MG [30]) was 37.7%, the inhibition in vivo at 10 mg/kg (U-118-MG [31]) was 38.5% and the Activity [32] was “Non-toxic”. The Activity [33] was “Non-toxic”, the Activity [34] was “Non-toxic” and the Activity [35] was “Non-toxic”. The Activity [36] was “Non-toxic” and the Activity [37] was “Non-toxic”.
